Consider 40 molecules from ChEMBL document CHEMBL1143583, “Anchor-GRIND: filling the gap between standard 3D QSAR and the GRid-INdependent descriptors” (J Med Chem, 2005).

Molecules are shown by their SMILES. Bounds are passed on as bounds.

The target of one experiment is Acetylcholinesterase (Homo sapiens, UniProt P22303). The experiment can be described thus: Inhibitory concentration against Acetylcholinesterase; (range = 2-20 uM).
Chain of Acetylcholinesterase (P22303 whole entry): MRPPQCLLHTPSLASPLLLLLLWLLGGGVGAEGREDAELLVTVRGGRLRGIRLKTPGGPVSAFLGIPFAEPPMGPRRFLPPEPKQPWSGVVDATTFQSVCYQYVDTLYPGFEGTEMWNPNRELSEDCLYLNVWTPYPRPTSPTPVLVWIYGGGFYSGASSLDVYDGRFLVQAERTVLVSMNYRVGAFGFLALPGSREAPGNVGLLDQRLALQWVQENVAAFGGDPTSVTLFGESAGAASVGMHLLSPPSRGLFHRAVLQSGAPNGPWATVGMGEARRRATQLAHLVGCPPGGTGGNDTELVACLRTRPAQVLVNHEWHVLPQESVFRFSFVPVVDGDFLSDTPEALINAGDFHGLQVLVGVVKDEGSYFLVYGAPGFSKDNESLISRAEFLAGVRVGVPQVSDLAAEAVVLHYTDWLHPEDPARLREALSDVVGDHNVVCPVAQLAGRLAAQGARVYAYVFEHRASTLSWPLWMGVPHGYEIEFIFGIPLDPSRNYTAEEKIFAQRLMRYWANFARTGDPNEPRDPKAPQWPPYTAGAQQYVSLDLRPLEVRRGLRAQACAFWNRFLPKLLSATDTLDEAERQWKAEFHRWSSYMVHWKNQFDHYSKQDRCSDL
Details: not given
In turn, `CCN(CC)CCN1CC(=O)N(CCc2ccccc2)CC1=O` showed an IC50 of 20 µM.
The molecule `O=C1CN(CCN2CCOCC2)C(=O)CN1CCC(c1ccccc1)c1ccccc1` yielded an IC50 of 20 µM.
Turning to `COc1ccc(CCN2CC(=O)N(CCc3ccccn3)CC2=O)cc1OC`, the IC50 was found to be 20 µM.
Regarding `CCN(CC)CCCN1CC(=O)N(C2CC2)CC1=O`, the IC50 is 20 µM.
In turn, `O=C1CN(CCN2CCCC2)C(=O)CN1CCCn1ccnc1` displayed an IC50 of 20 µM.
As to `CC(C)N(CCN1CC(=O)N(CCc2ccc(Cl)cc2Cl)CC1=O)C(C)C`, the IC50 came to 20 µM.
Take `CC1CCCCN1CCCN1CC(=O)N(CCc2ccc(F)cc2)CC1=O` (stereo not given): the IC50 was 20 µM.

The target of the next experiment is Genome polyprotein (Hepatitis C virus genotype 1a (isolate 1) (HCV), UniProt P26664). The experiment can be described thus: Inhibitory concentration against hepatitis C virus NS3 protease (IC50 spans 2.5 log units). Also on record: species or system Hepacivirus hominis. As to conditions: read-out: Log 1/IC50 (converted).
Chain of Genome polyprotein (P26664 1027-1657 limits assumed): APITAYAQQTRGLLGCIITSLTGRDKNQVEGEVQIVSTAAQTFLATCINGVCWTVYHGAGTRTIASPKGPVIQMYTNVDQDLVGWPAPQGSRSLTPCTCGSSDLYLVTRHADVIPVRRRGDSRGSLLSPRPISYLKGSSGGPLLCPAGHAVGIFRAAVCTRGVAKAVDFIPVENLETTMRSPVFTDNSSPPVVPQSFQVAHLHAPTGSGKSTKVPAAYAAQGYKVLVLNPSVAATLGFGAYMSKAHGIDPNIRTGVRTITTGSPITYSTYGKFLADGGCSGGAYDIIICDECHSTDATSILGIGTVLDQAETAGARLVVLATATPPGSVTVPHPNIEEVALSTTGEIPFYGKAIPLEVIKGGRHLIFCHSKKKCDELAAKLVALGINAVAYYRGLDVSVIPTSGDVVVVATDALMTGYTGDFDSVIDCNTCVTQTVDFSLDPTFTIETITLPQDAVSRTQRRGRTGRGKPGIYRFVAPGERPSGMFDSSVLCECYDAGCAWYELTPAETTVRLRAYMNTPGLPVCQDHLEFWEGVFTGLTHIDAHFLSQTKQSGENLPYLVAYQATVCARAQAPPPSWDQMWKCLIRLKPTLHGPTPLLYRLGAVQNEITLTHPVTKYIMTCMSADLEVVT
In the case of `CC(=O)N[C@H](C(=O)N[C@H](C(=O)C1C[C@H](Oc2ccc(-c3ccccc3)cc2)C[C@H]1C(=O)CC1(C(=O)O)CC1)C(C)C)C1CCCCC1` (stereo not given in full), the IC50 was 31.6 µM.
On the same count and under the same terms, under `COc1ccc(-c2ccccc2O[C@H]2CC(C(=O)[C@@H](NC(=O)[C@@H](NC(C)=O)C3CCCCC3)C(C)C)[C@H](C(=O)CC3(C(=O)O)CC3)C2)cc1` (stereo not given in full) stands above 200 µM; under `COc1ccc2nccc(O[C@H]3CC(C(=O)[C@@H](NC(=O)[C@@H](NC(C)=O)C4CCCCC4)C(C)C)[C@H](C(=O)CC4(C(=O)O)CC4)C3)c2c1` (stereo not given in full), 15.8 µM.
Same read-out and setting: under `CC(=O)N[C@H](C(=O)N[C@H](C(=O)C1C[C@H](Oc2ccnc3cc(C(F)(F)F)ccc23)C[C@H]1C(=O)CC1(C(=O)O)CC1)C(C)C)C1CCCCC1` (stereo not given in full) stands 6.31 µM; under `CC(=O)N[C@H](C(=O)N[C@H](C(=O)C1C[C@H](Oc2cccc(-c3cccc([N+](=O)[O-])c3)c2)C[C@H]1C(=O)CC1(C(=O)O)CC1)C(C)C)C1CCCCC1` (stereo not given in full), 6.31 µM; under `COc1ccc2c(O[C@H]3CC(C(=O)[C@@H](NC(=O)[C@@H](NC(C)=O)C4CCCCC4)C(C)C)[C@H](C(=O)CC4(C(=O)O)CC4)C3)ccnc2c1` (stereo not given in full), 0.794 µM.
Turning to `CC(=O)Nc1cccc(-c2cccc(O[C@H]3CC(C(=O)[C@@H](NC(=O)[C@@H](NC(C)=O)C4CCCCC4)C(C)C)[C@H](C(=O)CC4(C(=O)O)CC4)C3)c2)c1` (stereo not given in full), the IC50 is 6.31 µM.
Still for that read-out and setting: to `CC(=O)N[C@H](C(=O)N[C@H](C(=O)C1C[C@H](Oc2ccc(I)cc2)C[C@H]1C(=O)CC1(C(=O)O)CC1)C(C)C)C1CCCCC1` (stereo not given in full) belongs 10 µM.
On the same count and under the same terms, to `CC(=O)N[C@H](C(=O)N[C@H](C(=O)C1C[C@H](O)C[C@H]1C(=O)CC1(C(=O)O)CC1)C(C)C)C1CCCCC1` (stereo not given in full) belongs above 1000 µM; to `CC(=O)N[C@H](C(=O)N[C@H](C(=O)C1C[C@H](Oc2ccc(Cl)c3cccnc23)C[C@H]1C(=O)CC1(C(=O)O)CC1)C(C)C)C1CCCCC1` (stereo not given in full), 100 µM; to `CC(=O)N[C@H](C(=O)N[C@H](C(=O)C1C[C@H](Oc2cccc3cccnc23)C[C@H]1C(=O)CC1(C(=O)O)CC1)C(C)C)C1CCCCC1` (stereo not given in full), 251 µM.
With `CC(=O)N[C@H](C(=O)N[C@H](C(=O)C1C[C@H](Sc2ccc(Br)cc2)C[C@H]1C(=O)CC1(C(=O)O)CC1)C(C)C)C1CCCCC1` (stereo not given in full), the IC50 was 39.8 µM.
Same read-out and setting: under `CC(=O)N[C@H](C(=O)N[C@H](C(=O)C1C[C@H](Oc2ccccc2-c2ccc(C(=O)O)cc2)C[C@H]1C(=O)CC1(C(=O)O)CC1)C(C)C)C1CCCCC1` (stereo not given in full) stands above 200 µM.
Consider `CC(=O)N[C@H](C(=O)N[C@H](C(=O)C1C[C@H](Oc2ccc(Cl)cc2)C[C@H]1C(=O)CC1(C(=O)O)CC1)C(C)C)C1CCCCC1` (stereo not given in full), for which the IC50 was 50.1 µM.
Regarding `CC(=O)N[C@H](C(=O)N[C@H](C(=O)C1C[C@H](Oc2cccc(N3CCOCC3)c2)C[C@H]1C(=O)CC1(C(=O)O)CC1)C(C)C)C1CCCCC1` (stereo not given in full), the IC50 is 31.6 µM.
In the case of `CC(=O)N[C@H](C(=O)N[C@H](C(=O)C1C[C@H](Oc2ccccc2)C[C@H]1C(=O)CC1(C(=O)O)CC1)C(C)C)C1CCCCC1` (stereo not given in full), the IC50 was 79.4 µM.
For `COc1ccc(-c2ccc(O[C@H]3CC(C(=O)[C@@H](NC(=O)[C@@H](NC(C)=O)C4CCCCC4)C(C)C)[C@H](C(=O)CC4(C(=O)O)CC4)C3)cc2)cc1` (stereo not given in full), the IC50 was 31.6 µM.
On to `CC(=O)N[C@H](C(=O)N[C@H](C(=O)C1C[C@H](Oc2ccc(F)cc2)C[C@H]1C(=O)CC1(C(=O)O)CC1)C(C)C)C1CCCCC1` (stereo not given in full), for which the IC50 is 100 µM.
On to `CC(=O)N[C@H](C(=O)N[C@H](C(=O)C1C[C@H](Oc2ccccc2Br)C[C@H]1C(=O)CC1(C(=O)O)CC1)C(C)C)C1CCCCC1` (stereo not given in full), for which the IC50 was 25.1 µM.
Consider `CC(=O)N[C@H](C(=O)N[C@H](C(=O)C1C[C@H](Oc2cncc3ccccc23)C[C@H]1C(=O)CC1(C(=O)O)CC1)C(C)C)C1CCCCC1` (stereo not given in full), for which the IC50 is 3.98 µM.
Regarding `CC(=O)N[C@H](C(=O)N[C@H](C(=O)C1C[C@H](Oc2cccnc2-c2ccsc2)C[C@H]1C(=O)CC1(C(=O)O)CC1)C(C)C)C1CCCCC1` (stereo not given in full), the IC50 was above 200 µM.
The same measure, in the same setting: to `CC(=O)N[C@H](C(=O)N[C@H](C(=O)C1C[C@H](Oc2ccccc2-c2ccccc2)C[C@H]1C(=O)CC1(C(=O)O)CC1)C(C)C)C1CCCCC1` (stereo not given in full) belongs above 200 µM.
For `CC(=O)N[C@H](C(=O)N[C@H](C(=O)C1C[C@H](Sc2nc3ccccc3s2)C[C@H]1C(=O)CC1(C(=O)O)CC1)C(C)C)C1CCCCC1` (stereo not given in full), the IC50 was 20 µM.
The same measure, in the same setting: under `CC(=O)N[C@H](C(=O)N[C@H](C(=O)C1C[C@H](Oc2ccc(Br)cc2)C[C@H]1C(=O)CC1(C(=O)O)CC1)C(C)C)C1CCCCC1` (stereo not given in full) stands 25.1 µM; under `CC(=O)N[C@H](C(=O)N[C@H](C(=O)C1C[C@H](Oc2nccc3ccccc23)C[C@H]1C(=O)CC1(C(=O)O)CC1)C(C)C)C1CCCCC1` (stereo not given in full), 7.94 µM.
For the molecule `CC(=O)N[C@H](C(=O)N[C@H](C(=O)C1C[C@H](Sc2ccnc3cc(C(F)(F)F)ccc23)C[C@H]1C(=O)CC1(C(=O)O)CC1)C(C)C)C1CCCCC1` (stereo not given in full), the IC50 is 10 µM.
Turning to `CC(=O)N[C@H](C(=O)N[C@H](C(=O)C1C[C@H](Oc2cccc(-c3ccccc3)c2)C[C@H]1C(=O)CC1(C(=O)O)CC1)C(C)C)C1CCCCC1` (stereo not given in full), the IC50 was 6.31 µM.
For the molecule `CC(=O)N[C@H](C(=O)N[C@H](C(=O)C1C[C@H](Oc2ccnc3cc(Cl)ccc23)C[C@H]1C(=O)CC1(C(=O)O)CC1)C(C)C)C1CCCCC1` (stereo not given in full), the IC50 was 2 µM.
For the molecule `CC(=O)N[C@H](C(=O)N[C@H](C(=O)C1C[C@H](Oc2ccncc2)C[C@H]1C(=O)CC1(C(=O)O)CC1)C(C)C)C1CCCCC1` (stereo not given in full), the IC50 was 158 µM.
As to `CC(=O)N[C@H](C(=O)N[C@H](C(=O)C1C[C@H](Oc2cccc(Br)c2)C[C@H]1C(=O)CC1(C(=O)O)CC1)C(C)C)C1CCCCC1` (stereo not given in full), the IC50 is 50.1 µM.
`CC(=O)N[C@H](C(=O)N[C@H](C(=O)C1C[C@H](Oc2nc3ccccc3s2)C[C@H]1C(=O)CC1(C(=O)O)CC1)C(C)C)C1CCCCC1` (stereo not given in full): the IC50 is 20 µM.
On the same count and under the same terms, under `CC(=O)N[C@H](C(=O)N[C@H](C(=O)C1C[C@H](Oc2cccnc2)C[C@H]1C(=O)CC1(C(=O)O)CC1)C(C)C)C1CCCCC1` (stereo not given in full) stands 200 µM.
The same measure, in the same setting: to `CC(=O)N[C@H](C(=O)N[C@H](C(=O)C1C[C@H](Oc2ccnc3ccccc23)C[C@H]1C(=O)CC1(C(=O)O)CC1)C(C)C)C1CCCCC1` (stereo not given in full) belongs 5.01 µM.
